Results reported in paper PMC5513037, “Examining the influence of specificity ligands and ATP-competitive ligands on the overall effectiveness of bivalent kinase inhibitors” (Proteome Science, 2017).

Key:
Assay in all cases: KAM-matrix competition in K562 lysate;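 for 0.001 uM KAM: median log10 fold change of treatment over DMSO control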;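 for 0.01 uM KAM: median log10 fold change of treatment over DMSO control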;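 for 0.1 uM KAM: median log10 fold change of treatment over DMSO control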;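 for 1 uM KAM: median log10 fold change of treatment over DMSO control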;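 for 10 uM KAM: median log10 fold change of treatment over DMSO control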
Assay type in all cases: binding
BLVRA = biological target: T1, BLVRA (Homo sapiens, UniProt P53004);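 for 0.001 uM KAM: median log10 fold change of treatment over DMSO control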;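 for 0.01 uM KAM: median log10 fold change of treatment over DMSO control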;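 for 0.1 uM KAM: median log10 fold change of treatment over DMSO control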;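 for 1 uM KAM: median log10 fold change of treatment over DMSO control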;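 for 10 uM KAM: median log10 fold change of treatment over DMSO control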
T1 construct: endogenous in cells; host or cells: K562
T1 sequence (P53004 3-296): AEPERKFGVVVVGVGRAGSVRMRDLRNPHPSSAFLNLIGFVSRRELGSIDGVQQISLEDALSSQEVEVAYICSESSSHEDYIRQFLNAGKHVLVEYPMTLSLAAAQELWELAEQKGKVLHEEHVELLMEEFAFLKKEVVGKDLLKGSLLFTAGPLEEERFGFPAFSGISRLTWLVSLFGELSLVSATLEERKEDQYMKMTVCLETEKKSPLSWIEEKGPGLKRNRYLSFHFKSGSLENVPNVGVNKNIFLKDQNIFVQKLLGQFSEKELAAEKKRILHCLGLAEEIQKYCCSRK
Method: (§1) Supplement 12953_2017_125_MOESM1_ESM.zip/MS_Supp Info.xlsx, sheet "KAM" | column: 10 uM KAM; 1 uM KAM; 0.1 uM KAM; 0.01 uM KAM; 0.001 uM KAM; RB50

BMPR2 = biological target: T2, BMPR2 (Homo sapiens, UniProt Q13873);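 for 0.001 uM KAM: median log10 fold change of treatment over DMSO control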;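 for 0.01 uM KAM: median log10 fold change of treatment over DMSO control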;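 for 0.1 uM KAM: median log10 fold change of treatment over DMSO control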;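 for 1 uM KAM: median log10 fold change of treatment over DMSO control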;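 for 10 uM KAM: median log10 fold change of treatment over DMSO control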
T2 construct: endogenous in cells; host or cells: K562
T2 sequence (Q13873 27-1038): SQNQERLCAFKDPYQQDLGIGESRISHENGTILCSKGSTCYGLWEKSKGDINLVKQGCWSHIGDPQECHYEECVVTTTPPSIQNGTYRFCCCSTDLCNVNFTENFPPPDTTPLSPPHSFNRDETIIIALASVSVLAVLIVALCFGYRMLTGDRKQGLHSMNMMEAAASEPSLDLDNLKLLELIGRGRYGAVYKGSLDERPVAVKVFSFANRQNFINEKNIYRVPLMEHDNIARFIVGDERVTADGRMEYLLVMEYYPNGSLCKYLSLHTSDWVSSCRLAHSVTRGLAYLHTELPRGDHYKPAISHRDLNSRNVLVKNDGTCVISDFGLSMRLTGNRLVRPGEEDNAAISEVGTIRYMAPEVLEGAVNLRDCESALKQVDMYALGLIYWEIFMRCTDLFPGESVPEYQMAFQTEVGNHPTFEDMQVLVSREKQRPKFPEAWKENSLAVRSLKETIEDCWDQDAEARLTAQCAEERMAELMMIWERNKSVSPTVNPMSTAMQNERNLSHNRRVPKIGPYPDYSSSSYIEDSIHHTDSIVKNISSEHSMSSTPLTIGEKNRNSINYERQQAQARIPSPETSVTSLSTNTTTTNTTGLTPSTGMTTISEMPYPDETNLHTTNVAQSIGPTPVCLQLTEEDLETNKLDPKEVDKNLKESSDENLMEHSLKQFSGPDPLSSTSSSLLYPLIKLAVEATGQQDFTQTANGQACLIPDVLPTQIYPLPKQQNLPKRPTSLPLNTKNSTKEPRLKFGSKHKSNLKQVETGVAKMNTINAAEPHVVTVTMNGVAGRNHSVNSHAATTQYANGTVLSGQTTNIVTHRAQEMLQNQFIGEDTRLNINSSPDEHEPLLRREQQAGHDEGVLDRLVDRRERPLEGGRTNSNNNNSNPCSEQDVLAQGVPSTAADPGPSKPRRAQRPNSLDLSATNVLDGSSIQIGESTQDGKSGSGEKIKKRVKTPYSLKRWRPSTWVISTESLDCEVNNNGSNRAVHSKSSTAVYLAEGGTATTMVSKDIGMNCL
Method: as §1

CAMKK1 = biological target: T3, CAMKK1 (Homo sapiens, UniProt Q8N5S9)
T3 construct: endogenous in cells; host or cells: K562
Method: as §1

CAMKK2 = biological target: T4, CAMKK2 (Homo sapiens, UniProt Q96RR4)
T4 construct: endogenous in cells; host or cells: K562
Method: as §1

CSNK2A2 = biological target: T5, CSNK2A2 (Homo sapiens, UniProt P19784)
T5 construct: endogenous in cells; host or cells: K562
Method: as §1

FER = biological target: T6, FER (Homo sapiens, UniProt P16591)
T6 construct: endogenous in cells; host or cells: K562 lysate
Method: as §1

FYN = biological target: T7, FYN (Homo sapiens, UniProt P06241)
T7 construct: endogenous in cells; host or cells: K562
Method: as §1

SRPK1 = biological target: T8, SRPK1 (Homo sapiens, UniProt Q96SB4);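 for 0.001 uM KAM: median log10 fold change of treatment over DMSO control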;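 for 0.01 uM KAM: median log10 fold change of treatment over DMSO control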;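 for 0.1 uM KAM: median log10 fold change of treatment over DMSO control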;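 for 1 uM KAM: median log10 fold change of treatment over DMSO control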;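 for 10 uM KAM: median log10 fold change of treatment over DMSO control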
T8 construct: endogenous in cells; host or cells: K562
Method: as §1

[1] = KAM 0.001-10 uM, read-out: RB50 (the source's name)
[2] = read-out: RB50 (the source's name)

**Q.** What does the source list for `N#CCc1ccc(Nc2nc(NCCCN)cc(Nc3cc(C4CC4)[nH]n3)n2)cc1` [KAM]?
**A.** IC50 (BLVRA; [1]): > 10000 nM; 0.001 uM KAM (BLVRA; relative to 0 uM KAM = 0): 0.01315; 0.01 uM KAM (BLVRA; relative to 0 uM KAM = 0): 0.09211; 0.1 uM KAM (BLVRA; relative to 0 uM KAM = 0): 0.1192; 1 uM KAM (BLVRA; relative to 0 uM KAM = 0): 0.1811; 10 uM KAM (BLVRA; relative to 0 uM KAM = 0): 0.1365; IC50 (BMPR2; [1]): 6670 nM; 0.001 uM KAM (BMPR2; relative to 0 uM KAM = 0): 0.0006826; 0.01 uM KAM (BMPR2; relative to 0 uM KAM = 0): -0.02948; 0.1 uM KAM (BMPR2; relative to 0 uM KAM = 0): -0.09644; 1 uM KAM (BMPR2; relative to 0 uM KAM = 0): -0.1591; 10 uM KAM (BMPR2; relative to 0 uM KAM = 0): -0.3053; median Log10 fold change (CAMKK1; 0.001 uM KAM): -0.02592; median Log10 fold change (CAMKK1; 0.01 uM KAM): -0.02355; median Log10 fold change (CAMKK1; 0.1 uM KAM): -0.2718; median Log10 fold change (CAMKK1; 1 uM KAM): -0.415; median Log10 fold change (CAMKK1; 10 uM KAM): -0.4583; IC50 (CAMKK1; [2]): 248 nM; median Log10 fold change (CAMKK2; 0.001 uM KAM): 0.007982; median Log10 fold change (CAMKK2; 0.01 uM KAM): -0.006148; median Log10 fold change (CAMKK2; 0.1 uM KAM): -0.132; median Log10 fold change (CAMKK2; 1 uM KAM): -0.4329; median Log10 fold change (CAMKK2; 10 uM KAM): -0.5591; IC50 (CAMKK2; [2]): 553 nM; median Log10 fold change (CSNK2A2; 0.001 uM KAM): 0.0115; median Log10 fold change (CSNK2A2; 0.01 uM KAM): -0.003085; median Log10 fold change (CSNK2A2; 0.1 uM KAM): -0.2921; median Log10 fold change (CSNK2A2; 1 uM KAM): -0.5833; median Log10 fold change (CSNK2A2; 10 uM KAM): -0.635; IC50 (CSNK2A2; [2]): 150 nM; median Log10 fold change (FER; 0.001 uM KAM): -0.01643; median Log10 fold change (FER; 0.01 uM KAM): -0.02602; median Log10 fold change (FER; 0.1 uM KAM): -0.1873; median Log10 fold change (FER; 1 uM KAM): -0.4903; median Log10 fold change (FER; 10 uM KAM): -0.6195; IC50 (FER; [2]): 319 nM; median Log10 fold change (FYN; 0.001 uM KAM): -0.01373; median Log10 fold change (FYN; 0.01 uM KAM): 0.006068; median Log10 fold change (FYN; 0.1 uM KAM): -0.1646; median Log10 fold change (FYN; 1 uM KAM): -0.3588; median Log10 fold change (FYN; 10 uM KAM): -0.4538; IC50 (FYN; [2]): 754 nM; IC50 (SRPK1; [1]): > 10000 nM; 0.001 uM KAM (SRPK1; relative to 0 uM KAM = 0): -0.01052; 0.01 uM KAM (SRPK1; relative to 0 uM KAM = 0): -0.04054; 0.1 uM KAM (SRPK1; relative to 0 uM KAM = 0): 0.02779; 1 uM KAM (SRPK1; relative to 0 uM KAM = 0): -0.002878; 10 uM KAM (SRPK1; relative to 0 uM KAM = 0): -0.01305
